Results: ChEMBL document CHEMBL1201862, “PubChem BioAssay data set” (2004)
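A five-concentration, 48-hour dose response in 96-well plates underlies each endpoint, interpolated linearly between surrounding concentrations. Abbreviation: GI50, concentration required for 50% inhibition of growth.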 Active and inactive are the calls of the source. Cut-off read from the data, not from the text of the source: active = GI50 up to about 1.1 µM and inactive = higher.

How the values were obtained:
Experiment in all cases: NCI tumour cell line growth inhibition, 48 h
NCI-H522 = test system: NCI-H522
SF-268 = test system: SF-268
UACC-62 = test system: UACC-62
UO-31 = test system: UO-31
Malme-3M = test system: Malme-3M
SNB-19 = test system: SNB-19
MDA-MB-231 = test system: MDA-MB-231
HCC 2998 = test system: HCC 2998
SK-MEL-28 = test system: SK-MEL-28
SF-295 = test system: SF-295
RXF 393 = test system: RXF 393
U-251 = test system: U-251
TK-10 = test system: TK-10
A549 = test system: A549
DU-145 = test system: DU-145
UACC-257 = test system: UACC-257
LOX IMVI = test system: LOX IMVI
IGROV-1 = test system: IGROV-1
OVCAR-4 = test system: OVCAR-4
CAKI-1 = test system: CAKI-1

Row | Structure (SMILES) | GI50 (NCI-H522) | GI50 (SF-268) | GI50 (UACC-62) | GI50 (UO-31) | GI50 (Malme-3M) | GI50 (SNB-19) | GI50 (MDA-MB-231) | GI50 (HCC 2998) | GI50 (SK-MEL-28) | GI50 (SF-295) | GI50 (RXF 393) | GI50 (U-251) | GI50 (TK-10) | GI50 (A549) | GI50 (DU-145) | GI50 (UACC-257) | GI50 (LOX IMVI) | GI50 (IGROV-1) | GI50 (OVCAR-4) | GI50 (CAKI-1)
1 | O=C1NC(O)c2cc3ccccc3cc2O1 (centres undefined) | > 100 µM (inactive) | 61.7 µM (inactive) | 21.7 µM (inactive) | > 100 µM (inactive) | 59.7 µM (inactive) | 60 µM (inactive) | 34.4 µM (inactive) | > 100 µM (inactive) | 69.8 µM (inactive) | > 100 µM (inactive) | > 100 µM (inactive) | 26.5 µM (inactive) | > 100 µM (inactive) | > 100 µM (inactive) | > 100 µM (inactive) | 61.1 µM (inactive) | 46.6 µM (inactive) | 69.5 µM (inactive) | 76 µM (inactive) | –
2 | COc1ccc2oc3c(ccc[n+]3C)c(=O)c2c1 | > 100 µM (inactive) | > 100 µM (inactive) | > 100 µM (inactive) | > 100 µM (inactive) | > 100 µM (inactive) | > 100 µM (inactive) | > 100 µM (inactive) | > 100 µM (inactive) | > 100 µM (inactive) | > 100 µM (inactive) | > 100 µM (inactive) | > 100 µM (inactive) | > 100 µM (inactive) | > 100 µM (inactive) | > 100 µM (inactive) | – | > 100 µM (inactive) | > 100 µM (inactive) | > 100 µM (inactive) | > 100 µM (inactive)
3 | CO[C@](C(=O)OC[C@H]1[C@@H](COC(C)=O)[C@@H]2O[C@H]1c1cc3c(cc12)OCO3)(c1ccccc1)C(F)(F)F | 4.26 µM (inactive) | 30.7 µM (inactive) | 19.6 µM (inactive) | 10.4 µM (inactive) | > 100 µM (inactive) | 50.4 µM (inactive) | 30.8 µM (inactive) | 23.8 µM (inactive) | 41.3 µM (inactive) | 18 µM (inactive) | – | 36.5 µM (inactive) | 38.3 µM (inactive) | 17.5 µM (inactive) | 34.9 µM (inactive) | 40.5 µM (inactive) | – | 12.7 µM (inactive) | 40.4 µM (inactive) | 32.8 µM (inactive)
4 | c1ccc(C2=NCCN2)c(C2=NCCN2)c1 | > 100 µM (inactive) | > 100 µM (inactive) | > 100 µM (inactive) | > 100 µM (inactive) | > 100 µM (inactive) | > 100 µM (inactive) | > 100 µM (inactive) | 57.3 µM (inactive) | > 100 µM (inactive) | > 100 µM (inactive) | > 100 µM (inactive) | > 100 µM (inactive) | > 100 µM (inactive) | > 100 µM (inactive) | > 100 µM (inactive) | > 100 µM (inactive) | > 100 µM (inactive) | > 100 µM (inactive) | > 100 µM (inactive) | > 100 µM (inactive)
5 | COc1ccc2[nH]c(C(=O)N3CC(CCl)c4c3cc(N)c3ccccc43)cc2c1 (centres undefined) | – | < 0.01 µM (active) | < 0.01 µM (active) | < 0.01 µM (active) | – | < 0.0154 µM (active) | < 0.0204 µM (active) | < 0.01 µM (active) | 0.0142 µM (active) | < 0.01 µM (active) | < 0.01 µM (active) | < 0.01 µM (active) | < 0.01 µM (active) | < 0.01 µM (active) | < 0.01 µM (active) | 0.0119 µM (active) | < 0.01 µM (active) | < 0.01 µM (active) | < 0.01 µM (active) | < 0.01 µM (active)
6 | COc1ccc2c(=O)c(O)c(-c3ccc(OC)c(OC)c3)oc2c1 | 3.13 µM (inactive) | 4.84 µM (inactive) | 3.23 µM (inactive) | 2.47 µM (inactive) | 15.1 µM (inactive) | 15.8 µM (inactive) | 4.8 µM (inactive) | 27.9 µM (inactive) | 8.53 µM (inactive) | 10.1 µM (inactive) | – | 3.52 µM (inactive) | 4.91 µM (inactive) | 4.92 µM (inactive) | 4.04 µM (inactive) | 6.76 µM (inactive) | 5.58 µM (inactive) | 7.45 µM (inactive) | 0.191 µM (active) | 3.44 µM (inactive)
7 | O=c1cnn(C/C=C/CP(=O)(O)O)c(=O)[nH]1 | > 100 µM (inactive) | > 100 µM (inactive) | – | > 100 µM (inactive) | > 100 µM (inactive) | > 100 µM (inactive) | > 100 µM (inactive) | > 100 µM (inactive) | > 100 µM (inactive) | – | > 100 µM (inactive) | > 100 µM (inactive) | > 100 µM (inactive) | > 100 µM (inactive) | > 100 µM (inactive) | > 100 µM (inactive) | > 100 µM (inactive) | > 100 µM (inactive) | – | > 100 µM (inactive)
8 | CN(C)CCNC(=O)c1cccc2[nH]c(-c3ccncc3)nc12 | 1.88 µM (inactive) | 11.4 µM (inactive) | 2.96 µM (inactive) | 2.77 µM (inactive) | 1.91 µM (inactive) | 10.7 µM (inactive) | 3.24 µM (inactive) | 1.95 µM (inactive) | 1.86 µM (inactive) | 3.02 µM (inactive) | 5.58 µM (inactive) | 3.1 µM (inactive) | 6.5 µM (inactive) | 5.78 µM (inactive) | 7.76 µM (inactive) | 1.83 µM (inactive) | 0.733 µM (active) | 7.5 µM (inactive) | 9.29 µM (inactive) | 2.55 µM (inactive)
9 | COC1=CC(=O)c2c(c(COC(C)=O)cn2C)C1=O | 0.0158 µM (active) | 0.173 µM (active) | 0.13 µM (active) | 0.159 µM (active) | 0.0343 µM (active) | 0.345 µM (active) | 0.389 µM (active) | – | 0.22 µM (active) | 0.0286 µM (active) | 0.0809 µM (active) | 0.129 µM (active) | 0.0408 µM (active) | 0.207 µM (active) | 0.0457 µM (active) | 0.334 µM (active) | 0.0887 µM (active) | 0.184 µM (active) | 0.257 µM (active) | 0.0405 µM (active)
